According to US12497411B2, “Muscarinic acetylcholine receptor subtype 4 antagonists in the treatment of anemia” (COLD SPRING HARBOR LABORATORY, priority 2019, dated 2025):
Counter-ions that a name gives are not always drawn.

Legend:
[1] = system: Mouse BFU-Es; assay: Primary mouse BFU-E culture assay (cell expansion); type: cell-based; conditions: for potency in stimulating BFU-E expansion: mouse primary cell BFU-E culture assay
Procedure: Primary mouse BFU-Es were isolated from mouse embryonic day 14.5 (E14.5) fetal liver and cultured in StemSpan serum-free expansion medium, and the numbers of cells formed were counted during culture. BFU-Es were infected with either viruses encoding control shRNA or viruses encoding shRNAs targeting Chrm4, and numbers of GFP+ cells formed during culture were counted. DMSO or 25 mg/kg oxyphenonium bromide was intraperitoneally injected into the hemolysis mouse model, Mx1-cre Srsf2 P95H/WT MDS mouse model, and aging mouse model. Complete blood count (CBC) was performed after compound injection. CREB ChIP-Seq was performed on BFU-Es after culture with 100 μM oxyphenonium bromide for 45 minutes. RNA-Seq was performed in BFU-Es after being cultured with DMSO or oxyphenonium bromide for 3 days.
BFU-Es were isolated from mouse embryonic day 14.5 fetal liver using fluorescence-activated cell sorting (FACS) method previously described (Flygare et al., Blood 117, 3435-3444 (2011)). BFU-Es were cultured in StemSpan SFEM II medium containing rmSCF (100 ng/ml), EPO (2 U/ml), rmIGF-1 (40 ng/ml), dexamethasone (1 nmol/ml or 10 nmol/ml), oxyphenonium bromide ([…]), and orphenadrine citrate (1 μmol/ml).
BFU-Es were isolated from mouse embryonic day 14.5 fetal liver using fluorescence-activated cell sorting (FACS) method. BFU-Es were cultured in StemSpan SFEM II medium containing rmSCF (100 ng/ml), EPO (2 U/ml), rmIGF-1 (40 ng/ml), dexamethasone (1 nM), together with either DMSO, PCS1055 (5 nM), or PD102807 (3 nM). Numbers of cell formed were counted during in vitro culture.
FIGS. 7 and 8 show the results of the primary BFU-E culture assay. […] Highly purified BFU-Es were isolated as lin-Ter-119-CD16/CD32-Sca-1-CD41-c-Kit+CD71/Cd24a^10% low population using the fluorescence-activated cell sorting (FACS) method. BFU-Es were cultured in medium containing rmSCF, EPO, and rmIGF-1, in the presence of PD102807 or Compounds A-K at indicated concentrations.

[2] = molecular target: T1, CHRM4 (Homo sapiens, UniProt P08173); assay: Radioligand binding assay, CHRM4; design: expressed in transfected cells; host or cells: CHO cells (membranes); conditions: [3H]4-DAMP (0.2 nM), CHO cell membranes, 60 minutes at room temperature; read-out: Ki M4
T1 sequence (P08173 1-479): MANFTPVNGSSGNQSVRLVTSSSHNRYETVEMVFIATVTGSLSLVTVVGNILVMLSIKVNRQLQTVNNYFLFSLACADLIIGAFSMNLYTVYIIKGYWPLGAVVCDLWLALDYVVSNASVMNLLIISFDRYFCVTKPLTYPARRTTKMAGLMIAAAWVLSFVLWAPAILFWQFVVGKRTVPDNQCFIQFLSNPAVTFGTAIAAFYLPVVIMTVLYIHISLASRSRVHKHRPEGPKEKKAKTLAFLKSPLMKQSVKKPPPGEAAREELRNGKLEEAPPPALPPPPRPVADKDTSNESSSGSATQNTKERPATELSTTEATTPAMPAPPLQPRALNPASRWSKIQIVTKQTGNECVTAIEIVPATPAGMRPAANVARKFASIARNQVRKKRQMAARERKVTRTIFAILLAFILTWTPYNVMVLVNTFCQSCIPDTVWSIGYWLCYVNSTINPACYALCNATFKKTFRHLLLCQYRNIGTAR
Procedure: (§1) PD102807 and Compounds A-K at concentrations of 1×10^−9 M, 1×10^−8 M, 1×10^−7 M, 1×10^−6 M, and 1×10^−5 M were tested in standard binding assays with radioligands and cell membranes with receptors. Compound binding was calculated as a percent inhibition of the binding of a radioactively labeled ligand specific for each target, and the Ki values were determined. For CHRM1, the binding assay was performed using [^3H]pirenzepine (2 nM) as a radioligand and membranes of CHO cells with human recombinant CHRM1 receptor. The incubation time was 60 minutes at room temperature. For CHRM2, the binding assay was performed using [^3H]AF-DX 384 (2 nM) as a radioligand and membranes of CHO cells with human recombinant CHRM2 receptor. The incubation time was also 60 minutes at room temperature. For CHRM3, the binding assay was performed using [^3H]4-DAMP (0.2 nM) as a radioligand and membranes of CHO cells with human recombinant CHRM3 receptor. The incubation time was also 60 minutes at room temperature. For CHRM4, the binding assay was performed using [^3H]4-DAMP (0.2 nM) as a radioligand and membranes of CHO cells with human recombinant CHRM4 receptor. The incubation time was also 60 minutes at room temperature. For CHRM5, the binding assay was performed using [^3H]4-DAMP (0.3 nM) as a radioligand and membranes of CHO cells with human recombinant CHRM5 receptor. The incubation time was also 60 minutes at room temperature.

[3] = system: PHZ induced hemolytic anemia in C57bl/6 mice; assay: PHZ induced hemolytic anemia mouse model, CBC; type: in vivo; conditions: subcutaneous injection; B 1.5, 3 or 5 mg/kg; I 0.5, 0.7 or 1 mg/kg; 60 mg/kg phenylhydrazine
Procedure: Animal experiments were conducted in the Cold Spring Harbor Laboratory Animal Shared Resource in accordance with Institutional Animal Care and Use Committee-approved procedures. 4-6 weeks old C57bl/6 mice, purchased from Jackson Laboratory and randomly distributed into compound and control treatment groups, were given through oral delivery of PCS1055 (50 mg/kg or 100 mg/kg) twice per day or PD102807 (50 mg/kg or 100 mg/kg) once per day everyday for 3 days. On day 3, mice were intraperitoneally injected with 60 mg/kg PHZ. Mice were then given through oral delivery of PD102807 (50 mg/kg or 100 mg/kg) once per day every day for 2 days. Peripheral blood samples were collected retro-orbitally on day 6 using heparinized capillary tubes in blood collection tubes with K2-EDTA. CBC was performed using Hemavet 950. […] C57bl/6 mice were injected with 60 mg/kg phenylhydrazine to induce hemolysis. Mice were delivered with either vehicle control or Compound A or B (30 mg/kg or 100 mg/kg). Peripheral blood samples were collected retro-orbitally using heparinized capillary tubes into blood collection tubes with K2-EDTA. Complete blood counting was performed using Hemavet 950. Hematocrit (HCT), red blood cell (RBC) and hemoglobin (Hb) values are shown. […] C57bl/6 mice were injected with 60 mg/kg phenylhydrazine to induce hemolysis. Mice were delivered with subcutaneous injection with either vehicle control or Compound B (1.5 mg/kg, 3 mg/kg, or 5 mg/kg) or I (0.5 mg/kg, 0.7 mg/kg, or 1 mg/kg). Peripheral blood samples were collected retro-orbitally using heparinized capillary tubes into blood collection tubes with K2-EDTA. Complete blood counting was performed using Hemavet 950. Hematocrit (HCT), red blood cell (RBC) and hemoglobin (Hb) values are shown.

[4] = molecular target: T2, human recombinant CHRM3 receptor (Homo sapiens, UniProt P20309); assay: Radioligand binding assay, CHRM3; conditions: [3H]4-DAMP (0.2 nM), CHO cell membranes, 60 minutes at room temperature; read-out: Ki M3
T2 construct: expressed in transfected cells; host or cells: CHO cells (membranes)
T2 sequence (P20309 whole entry): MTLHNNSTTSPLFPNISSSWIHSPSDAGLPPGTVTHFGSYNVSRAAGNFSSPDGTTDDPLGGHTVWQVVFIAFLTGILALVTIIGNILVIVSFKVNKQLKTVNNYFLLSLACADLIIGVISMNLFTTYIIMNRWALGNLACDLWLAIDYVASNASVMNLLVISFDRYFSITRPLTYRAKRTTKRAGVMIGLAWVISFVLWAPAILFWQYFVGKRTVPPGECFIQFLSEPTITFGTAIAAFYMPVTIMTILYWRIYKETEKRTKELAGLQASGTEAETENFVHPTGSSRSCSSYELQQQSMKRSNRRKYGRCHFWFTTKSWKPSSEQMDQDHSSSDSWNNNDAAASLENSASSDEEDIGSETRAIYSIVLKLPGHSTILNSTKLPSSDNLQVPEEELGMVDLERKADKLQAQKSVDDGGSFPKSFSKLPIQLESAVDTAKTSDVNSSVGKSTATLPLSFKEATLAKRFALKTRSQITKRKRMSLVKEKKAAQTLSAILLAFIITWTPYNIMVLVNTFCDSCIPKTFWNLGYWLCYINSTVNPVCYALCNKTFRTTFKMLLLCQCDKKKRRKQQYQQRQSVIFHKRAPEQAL
Procedure: as §1

[5] = molecular target: T3, human recombinant CHRM1 receptor (Homo sapiens, UniProt P11229); assay: Radioligand binding assay, CHRM1; conditions: [3H]pirenzepine (2 nM), CHO cell membranes, 60 minutes at room temperature; read-out: Ki M1
T3 construct: expressed in transfected cells; host or cells: CHO cells (membranes)
T3 sequence (P11229 1-460): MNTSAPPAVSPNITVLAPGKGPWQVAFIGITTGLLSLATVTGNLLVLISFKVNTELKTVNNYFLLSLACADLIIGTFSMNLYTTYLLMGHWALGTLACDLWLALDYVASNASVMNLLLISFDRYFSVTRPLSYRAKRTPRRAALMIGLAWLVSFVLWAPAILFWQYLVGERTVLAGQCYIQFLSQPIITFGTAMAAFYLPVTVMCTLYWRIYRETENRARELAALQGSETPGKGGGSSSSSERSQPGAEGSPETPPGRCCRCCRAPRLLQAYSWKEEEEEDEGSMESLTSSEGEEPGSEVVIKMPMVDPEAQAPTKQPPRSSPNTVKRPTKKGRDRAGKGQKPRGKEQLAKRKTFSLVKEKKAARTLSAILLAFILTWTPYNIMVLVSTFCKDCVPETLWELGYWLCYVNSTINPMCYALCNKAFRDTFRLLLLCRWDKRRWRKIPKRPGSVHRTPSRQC
Procedure: as §1

[6] = molecular target: T4, human recombinant CHRM2 receptor (Homo sapiens, UniProt P08172); assay: Radioligand binding assay, CHRM2; conditions: [3H]AF-DX 384 (2 nM), CHO cell membranes, 60 minutes at room temperature; read-out: Ki M2
T4 construct: expressed in transfected cells; host or cells: CHO cells (membranes)
T4 sequence (P08172 1-466): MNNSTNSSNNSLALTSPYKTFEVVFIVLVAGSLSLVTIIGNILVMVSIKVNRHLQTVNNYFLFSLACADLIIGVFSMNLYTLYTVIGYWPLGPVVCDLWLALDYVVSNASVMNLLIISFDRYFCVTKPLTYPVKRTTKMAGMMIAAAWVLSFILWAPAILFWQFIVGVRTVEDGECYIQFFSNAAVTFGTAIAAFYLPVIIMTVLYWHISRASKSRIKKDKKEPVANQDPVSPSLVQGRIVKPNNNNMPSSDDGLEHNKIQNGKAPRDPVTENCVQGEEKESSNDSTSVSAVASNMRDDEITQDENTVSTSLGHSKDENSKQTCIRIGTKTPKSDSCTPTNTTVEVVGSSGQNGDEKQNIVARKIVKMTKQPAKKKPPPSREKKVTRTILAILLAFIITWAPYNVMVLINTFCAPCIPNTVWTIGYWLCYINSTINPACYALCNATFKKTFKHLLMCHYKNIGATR
Procedure: as §1

[7] = molecular target: T5, human recombinant CHRM5 receptor (Homo sapiens, UniProt P08912); assay: Radioligand binding assay, CHRM5; conditions: [3H]4-DAMP (0.3 nM), CHO cell membranes, 60 minutes at room temperature; read-out: Ki M5
T5 construct: expressed in transfected cells; host or cells: CHO cells (membranes)
T5 sequence (P08912 1-532): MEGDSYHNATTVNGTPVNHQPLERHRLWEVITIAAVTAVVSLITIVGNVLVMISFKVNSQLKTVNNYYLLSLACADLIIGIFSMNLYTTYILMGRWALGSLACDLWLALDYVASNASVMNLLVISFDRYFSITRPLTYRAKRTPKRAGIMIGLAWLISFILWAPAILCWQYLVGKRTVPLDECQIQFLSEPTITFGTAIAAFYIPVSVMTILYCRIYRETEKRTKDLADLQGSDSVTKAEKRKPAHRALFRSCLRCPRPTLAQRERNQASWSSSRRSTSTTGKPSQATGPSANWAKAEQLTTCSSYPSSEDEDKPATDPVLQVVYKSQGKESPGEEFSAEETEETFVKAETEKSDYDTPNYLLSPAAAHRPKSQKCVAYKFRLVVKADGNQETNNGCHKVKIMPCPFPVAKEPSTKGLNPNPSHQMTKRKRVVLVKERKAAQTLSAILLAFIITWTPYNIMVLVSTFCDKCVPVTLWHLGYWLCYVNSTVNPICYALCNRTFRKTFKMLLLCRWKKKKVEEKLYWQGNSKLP
Procedure: as §1

SMILES | Ki [2] [nM] | Ki [4] [nM] | Ki [5] [nM] | Ki [6] [nM] | Ki [7] [nM] | potency in stimulating BFU-E expansion [1] | treatment of anemia in vivo (HCT, RBC, Hb) [3] | fold cell expansion ([1]; 5 μM KT5720 (with 3 nM PD102807), day 9, vs untreated) | BFU-E expansion (test of GPCR agonists and antagonists) ([1]; mouse BFU-E culture)
CCOC(=O)c1c(C)n(C)c2ccc3c(c12)CN1CCc2cc(OC)ccc2C1O3 (centres unmarked) [Compound C, Ethyl 9-methoxy-2,3-dimethyl-3,6a,11,14-tetrahydro-12H-indolo[4′,5′:5,6][1,3]oxazino[2,3-a]isoquinoline-1-carboxylate] | 4.6 | 600 | 5200 | 850 |  |  |  |  | 
CCOC(=O)c1c(C)n(C)c2ccc(O)c(CN3CCc4cc(OC)ccc4C3)c12 [Compound D, Ethyl 5-hydroxy-4-((6-methoxy-3,4-dihydroisoquinolin-2(1H)-yl)methyl)-1,2-dimethyl-1H-indole-3-carboxylate] | 42 | 740 | 280 | 59 |  |  |  |  | 
CCOC(=O)c1c(C)[nH]c2ccc(OC)c(CN3CCc4cc(OC)ccc4C3)c12 [Compound E, ethyl 5-methoxy-4-((6-methoxy-3,4-dihydroisoquinolin-2(1H)-yl)methyl)-2-methyl-1H-indole-3-carboxylate] | 1500 |  | 8500 | 2600 |  |  |  |  | 
CCOC(=O)c1c(C)n(C)c2ccc(OC)c(CN3CCc4cc(OC)ccc4C3)c12 [F] | 950 | 3900 |  | 3900 |  | slightly less potent than the others |  |  | 
CCCCCCOC(=O)[C@]1(O)C[C@@H]2O[C@@]1(C)n1c3ccccc3c3c4c(c5c6ccccc6n2c5c31)C(=O)NC4 [KT5720] |  |  |  |  |  |  |  | significantly reduced fold cell expansion | 
Cc1ccccc1C(OCCN(C)C)c1ccccc1 (centres unmarked) [orphenadrine citrate] |  |  |  |  |  |  |  |  | triggered BFU-E expansion

Further compounds by falling Ki [2], results first:

Ki [2] [nM] | Ki [4] [nM] | Ki [5] [nM] | Ki [6] [nM] | Ki [7] [nM] | SMILES | potency in stimulating BFU-E expansion [1] | treatment of anemia in vivo (HCT, RBC, Hb) [3] | fold cell expansion ([1]; 5 μM KT5720 (with 3 nM PD102807), day 9, vs untreated) | BFU-E expansion (test of GPCR agonists and antagonists) ([1]; mouse BFU-E culture)
4300 |  |  |  |  | CCOC(=O)c1c(C)[nH]c2ccc3c(c12)C[N+]1(C)CCc2cc(OC)ccc2C1O3 (single isomer, unassigned) [Compound B, 1-(ethoxycarbonyl)-9-methoxy-2,13-dimethyl-3,6a,11,12,13,14-hexahydroindolo[4′,5′:5,6][1,3]oxazino[2,3-a]isoquinolin-13-ium Iodide] | slightly less potent than the others | treat anemia in vivo |  | 
54 | 400 | 54 | 100 | 980 | CCOC(=O)c1c(C)n(C)c2cc(C[N+]3(C)CCc4cc(OC)ccc4C3)c(OC)cc12 (centres unmarked) [Compound K] |  |  |  | 
8.9 | 1700 | 1300 | 750 |  | CCOC(=O)c1c(C)n(C)c2cc(CN3CCc4cc(OC)ccc4C3)c(OC)cc12 [J] |  |  |  | 
